Tests used:
Neuro2A cells = assay: Targeted lipidomics in Neuro2A cells; assay type: cell-based, mouse; settings: in situ treatment 1h, 37 °C; n=4
Method: To test the cellular activity of inventive compound 25, the inventor used Neuro2A cells, which is a mouse neuroblastoma cell line known to express both DAGL-α and DAGL-β. In a targeted lipidomics experiment the effect of inventive compound 25 on the cellular levels of 2-AG and anandamide was determined.
Neuro2A cells were cultured as described above. Before inhibitor treatment, the culture medium was removed and the cells were washed with warm (37 °C) serum free medium (3x). The cells were treated with vehicle (DMSO) or inhibitor for 1h at 37 °C in serum free medium. […]
Endocannabinoids were measured using a chip-based nano liquid chromatography (LC) system coupled to a triple quadrupole mass spectrometer. […]
A 6440 Triple quadrupole equipped with a nonoESI source operating in positive mode (Agilent technologies, Walborn, Germany) was used for MS detection. […] Quantification was obtained using static MRM (multiple reaction monitoring) mode of the transistions at m/z 379.3 → 287.2 for 2AG, 348.3 → 62.2 for AEA and 387.3 → 294.2 for 2AGd8, 356.3 → 62.2 for AEAd8 (internal standards). […] Raw MS data were processes using mass hunter quantitative analysis work station (Agilent technologies). AEA and 2AG was quantified by using a matrix matched internal standard calibration curve. […]

hDAGL-β = target: T1, hDAGL-β (Homo sapiens, UniProt Q8NCG7); assay: Competitive ABPP with MB064 on membranes of hDAGL-β transfected HEK293 cells; assay type: biochemical; parameters: FLAG; expressed in transfected cells; host or cells: HEK293, membranes; settings: n=3, read-out: pIC50 of hDAGL-β labeling (converted)
T1 sequence (Q8NCG7 1-672): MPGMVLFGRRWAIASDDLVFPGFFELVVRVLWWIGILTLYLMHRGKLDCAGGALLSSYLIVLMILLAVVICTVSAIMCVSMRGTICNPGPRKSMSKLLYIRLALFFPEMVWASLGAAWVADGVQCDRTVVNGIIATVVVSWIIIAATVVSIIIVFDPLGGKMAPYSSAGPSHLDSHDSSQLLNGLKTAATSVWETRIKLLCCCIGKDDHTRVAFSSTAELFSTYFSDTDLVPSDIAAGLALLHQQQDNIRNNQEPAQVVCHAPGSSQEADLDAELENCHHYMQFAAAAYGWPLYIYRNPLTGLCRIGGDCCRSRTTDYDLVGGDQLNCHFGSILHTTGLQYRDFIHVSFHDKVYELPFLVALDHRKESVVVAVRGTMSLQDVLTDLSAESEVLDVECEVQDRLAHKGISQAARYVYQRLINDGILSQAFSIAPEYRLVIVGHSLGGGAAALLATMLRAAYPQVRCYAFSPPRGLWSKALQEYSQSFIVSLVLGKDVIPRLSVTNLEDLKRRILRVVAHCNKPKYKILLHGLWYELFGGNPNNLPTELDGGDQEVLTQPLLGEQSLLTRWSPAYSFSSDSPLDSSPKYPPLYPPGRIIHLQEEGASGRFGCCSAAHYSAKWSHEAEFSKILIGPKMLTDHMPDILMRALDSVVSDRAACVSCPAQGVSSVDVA
Method: In view of the high homology between DAGL-α and DAGL-β the inventors assesed the activity of compound 25 also on native DAGL-β. To this end, it was tested whether the ABP probe MB064 was also able to label DAGL-β. MB064 was incubated with membranes from mock and hDAGL-β transfected HEK293 cells. MB064 was able to label a protein at the expected molecular weight of DAGL-β, which was not present in the control membranes, or in S443A-hDAGL-β transfected cells, in which the catalytic serine is replaced by alanine using site-directed mutagenesis (Figure 1 F). Thus, the tailor-made probe can also detect DAGL-β.

## Cc1ccc(-c2cnc3nc(C(=O)CCCCCc4ccccc4)oc3c2)cc1 [Compound 25, 1-(6-(p-Tolyl)oxazolo[4,5-b]pyridin-2-yl)-6-phenylhexan-1-one]
Neuro2A cells
  anandamide levels: constant
  basal 2-AG levels: dose dependently decreased
hDAGL-β
  IC50: 0.0398 µM
